{
  "source": "patent EP0808832B1",
  "about": "“Fluorinated vitamin D3 analogs” (F. HOFFMANN-LA ROCHE AG, priority 1996, dated 1997)",
  "key": {"[1]": {"system": "rats are ovariectomized (Ovx)", "type": "in vivo, rat", "conditions": "for Whole Femur BMD: 3 to 6 weeks post-ovariectomy, right femur; for Urine Calcium/Creatinine 6th wk): 0.20 µg/kg once a day by mouth", "text": "Three month old rats are ovariectomized (Ovx) and administered either 1,25-dihydroxy vitamin D3 (vit. D in Table) or one of the compounds of the present invention once a day by mouth starting at 3 weeks post-ovariectomy and continuing until final sacrifice at 6 weeks post-ovariectomy. Control groups, both sham (rats that were not ovariectomized) and Ovx, received vehicle only. Blood and urine samples were collected twice, at 4 weeks post-ovariectomy and again at the 6 week mark and the amount of serum and urine calcium was determined. The final femoral calcium determined upon sacrifice 6 weeks post- ovariectomy.\nThe bone mineral density (BMD) of the right femur was determined by using a High Resolution Software Package on a QDR-1000W Bone Densitometer™ (Hologic, Walthan, MA). The animals were scanned by placing them on a scanning block in a supine position such that the right leg was perpendicular to the main body and the tibia was perpendicular to the femur.\nThe increase in the bone mineral density and the amount of calcium in the urine and the serum for some of the compounds of this invention in this assay are given in the table below: […]"}, "[2]": {"system": "women with postmenopausal osteoporosis", "conditions": "0.25 microgram twice daily, after 3 years, mild to moderate disease, compared with elemental calcium 1000 mg/day; cited from earlier work"}},
  "note": "Several values for one entry are separate records, joined by “and”; a condition that tells them apart may be missing. Equal entries are not always repeated. Where two headings read alike, the source gives them in different places.",
  "data": [
    {"molecule": "C=C1/C(=C\\C=C2/CCC[C@]3(C)C([C@@H](C)C/C=C/C(C)(O)C(F)(F)F)=CC[C@@H]23)C[C@@H](O)C[C@@H]1F", "note": "(stereo partly drawn) [Cpd. 57, 1-α-Fluoro-25(RS)-hydroxy-16,23E-diene-26-trifluoro-20-epi-cholecalciferol]", "values": [
      {"measurement": "Whole Femur BMD", "setting": "[1]; 1.50 µg/kg once a day by mouth", "result": 0.248, "unit": "g/cm^2"}
    ]},
    {"molecule": "C=C1/C(=C\\C=C2/CCC[C@]3(C)[C@@H](C4(CC#CC(C)(C)O)CC4)CC[C@@H]23)C[C@@H](O)C[C@@H]1F", "note": "[Cpd. 58, 1-α-Fluoro-25-hydroxy-23-yne-20,21,28-cyclopropylcholecalciferol]", "values": [
      {"measurement": "Whole Femur BMD", "setting": "[1]; 5.00 µg/kg once a day by mouth", "result": 0.236, "unit": "g/cm^2"}
    ]},
    {"molecule": "C=C1/C(=C\\C=C2/CCC[C@]3(C)C([C@@H](C)CC#CC4(O)CCCC4)=CC[C@@H]23)C[C@@H](O)C[C@@H]1F", "note": "[Cpd. 59, 1-α-Fluoro-25-hydroxy-16-ene-23-yne-25,26,27-cyclopentyl-20-epi-cholecalciferol]", "values": [
      {"measurement": "Whole Femur BMD", "setting": "[1]; 2.00 µg/kg once a day by mouth", "result": 0.233, "unit": "g/cm^2"}
    ]},
    {"molecule": "C=C1/C(=C\\C=C2/CCC[C@]3(C)[C@@H]([C@H](C)CCCC(C)(C)O)CC[C@@H]23)C[C@@H](O)C[C@@H]1O", "note": "[Vit D, 1,25-dihydroxy vitamin D3]", "values": [
      {"measurement": "lower rate of new vertebral fractures", "setting": "[2]", "result": 3, "unit": "fold"},
      {"measurement": "Urine Calcium/Creatinine 6th wk)", "setting": "[1]", "result": "1.35 mg/dL and 1.44 mg/dL"},
      {"measurement": "Urine Calcium/Creatinine 6th wk)", "setting": "[1]; listed as Vit. D", "result": "0.76 mg/dL and 1.44 mg/dL and 1.48 mg/dL"}
    ]},
    {"molecule": "C=C1/C(=C\\C=C2/CCC[C@]3(C)[C@@H](C4(C/C=C/C(O)(C(F)(F)F)C(F)(F)F)CC4)CC[C@@H]23)C[C@@H](O)C[C@@H]1F", "note": "[Cpd. 60, 1-α-Fluoro-25-hydroxy-23E-ene-26,27-hexafluoro-20,21,28-cyclopropyl-cholecalciferol]", "values": [
      {"measurement": "Whole Femur BMD", "setting": "[1]; 0.10 µg/kg once a day by mouth", "result": 0.242, "unit": "g/cm^2"}
    ]},
    {"molecule": "C=C1/C(=C\\C=C2/CCC[C@]3(C)[C@@H](C4(CC#CC(O)(C(F)(F)F)C(F)(F)F)CC4)CC[C@@H]23)C[C@@H](O)C[C@@H]1F", "note": "[Cpd. 61, 1-α-Fluoro-25-hydroxy-23-yne-26,27-hexafluoro-20,21,28-cyclopropyl-cholecalciferol]", "values": [
      {"measurement": "Whole Femur BMD", "setting": "[1]; 0.50 µg/kg once a day by mouth", "result": 0.243, "unit": "g/cm^2"}
    ]}
  ]
}
